Source: PMC11200219 (JACS Au, 2024)

Columns and labels:
[1] = molecular target: T1, bovine pancreatic DNase I (Bos taurus, UniProt P00639); conditions: cited from earlier work
[2] = molecular target: T1, bovine pancreatic DNase I; test: DNase I assay; assay type: biochemical; conditions: in the absence of Mn007
[3] = stated in the introduction without reference; cited from earlier work

T1 sequence (P00639 23-282): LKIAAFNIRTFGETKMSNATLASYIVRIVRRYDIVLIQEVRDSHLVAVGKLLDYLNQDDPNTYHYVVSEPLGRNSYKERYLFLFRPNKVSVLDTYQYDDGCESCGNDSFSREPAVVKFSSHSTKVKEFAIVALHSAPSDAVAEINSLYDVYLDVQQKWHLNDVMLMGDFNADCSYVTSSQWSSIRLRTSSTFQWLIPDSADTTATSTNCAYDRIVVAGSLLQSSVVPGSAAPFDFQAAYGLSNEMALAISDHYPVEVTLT

Compound | Inhibition of bovine pancreatic DNase I (reported) [1] | Effect on activity of DNase I [2] | Cytotoxicity [3]
O=C(O)CN(CCN(CC(=O)O)CC(=O)O)CC(=O)O [EDTA] | reported to inhibit |  | 
CC(O)COC[C@H]1O[C@@H]2O[C@H]3[C@H](O)[C@@H](O)[C@@H](O[C@H]4[C@H](O)[C@@H](O)[C@@H](O[C@H]5[C@H](O)[C@@H](O)[C@@H](O[C@H]6[C@H](O)[C@@H](O)[C@@H](O[C@H]7[C@H](O)[C@@H](O)[C@@H](O[C@H]8[C@H](O)[C@@H](O)[C@@H](O[C@H]1[C@H](O)[C@H]2O)O[C@@H]8COCC(C)O)O[C@@H]7COCC(C)O)O[C@@H]6COCC(C)O)O[C@@H]5COCC(C)O)O[C@@H]4COCC(C)O)O[C@@H]3COCC(C)O (stereo partly drawn) [HyβCD, 2-Hydroxypropyl-β-cyclodextrin] |  | did not affect the activity of DNase I | 
CN(C)c1ccc(C(=C2C=CC(=[N+](C)C)C=C2)c2ccc(N(C)C)cc2)cc1 [crystal violet] | reported to inhibit |  | show cytotoxicity
actin | reported to inhibit |  | 
